{"source": "patent US11980596B2", "about": "(priority 2017, dated 2024)", "test_system": "patients with treatment-resistant depression (TRD)", "assay": "Adverse events (Example 7)", "format": "in vivo, human", "experimental": "Adverse events were monitored throughout the study. Other safety assessments (i.e., laboratory tests, vital signs, physical examination) were performed at pre-specified time points. Vital signs, the Clinician Administered Dissociative States Scale (CADSS; Bremner, “Measurement of dissociative states with the clinician-administered dissociative states scale (CADSS)”, J. Traumatic Stress, 1998, 11(1):125-136), and the 4-item positive symptom subscale from the Brief Psychiatric Rating Scale (BPRS; Overall, “The Brief Psychiatric Rating Scale. Psychological Reports”, 1962, 10:799-812) were assessed pre-dose, at 40 minutes, and 2 hours post-dose.\nSafety data were analyzed in Period 1, Period 2, double-blind, and open-label data sets, for all subjects receiving at least 1 dose of study medication.", "key": {"[1]": {"conditions": "double-blind, esketamine 84 mg, N = 17"}, "[2]": {"conditions": "double-blind, esketamine Total, N = 56"}}}
{"molecule": "CN[C@]1(c2ccccc2Cl)CCCCC1=O", "note": "[esketamine, (S)-2-(2-chlorophenyl)-2-(methylamino)cyclohexanone]", "values": [{"measurement": "Dysgeusia, number of participants", "setting": "[1]", "value": 5}, {"measurement": "Feeling abnormal, % of participants", "setting": "[1]", "value": "(6) %"}, {"measurement": "Feeling abnormal, number of participants", "setting": "[1]", "value": 1}, {"measurement": "Headache, % of participants", "setting": "[1]", "value": "(18) %"}, {"measurement": "Headache, number of participants", "setting": "[1]", "value": 3}, {"measurement": "Hypersomnia, number of participants", "setting": "[1]", "value": 0}, {"measurement": "Hypertension, % of participants", "setting": "[1]", "value": "(6) %"}, {"measurement": "Hypertension, number of participants", "setting": "[1]", "value": 1}, {"measurement": "Hypoesthesia oral, % of participants", "setting": "[1]", "value": "(12) %"}, {"measurement": "Hypoesthesia oral, number of participants", "setting": "[1]", "value": 2}, {"measurement": "Insomnia, number of participants", "setting": "[1]", "value": 0}, {"measurement": "Nasal discomfort, % of participants", "setting": "[1]", "value": "(6) %"}, {"measurement": "Nasal discomfort, number of participants", "setting": "[1]", "value": 1}, {"measurement": "Nausea, % of participants", "setting": "[1]", "value": "(24) %"}, {"measurement": "Nausea, number of participants", "setting": "[1]", "value": 4}, {"measurement": "Oropharyngeal pain, % of participants", "setting": "[1]", "value": "(12) %"}, {"measurement": "Oropharyngeal pain, number of participants", "setting": "[1]", "value": 2}, {"measurement": "Polyuria, number of participants", "setting": "[1]", "value": 0}, {"measurement": "Sedation, % of participants", "setting": "[1]", "value": "(6) %"}, {"measurement": "Sedation, number of participants", "setting": "[1]", "value": 1}, {"measurement": "Throat irritation, % of participants", "setting": "[1]", "value": "(12) %"}, {"measurement": "Throat irritation, number of participants", "setting": "[1]", "value": 2}, {"measurement": "Total with events, % of participants", "setting": "[1]", "value": "(88) %"}, {"measurement": "Total with events, number of participants", "setting": "[1]", "value": 15}, {"measurement": "Tunnel vision, % of participants", "setting": "[1]", "value": "(12) %"}, {"measurement": "Tunnel vision, number of participants", "setting": "[1]", "value": 2}, {"measurement": "Vertigo, % of participants", "setting": "[1]", "value": "(6) %"}, {"measurement": "Vertigo, number of participants", "setting": "[1]", "value": 1}, {"measurement": "Vision blurred, % of participants", "setting": "[1]", "value": "(12) %"}, {"measurement": "Vision blurred, number of participants", "setting": "[1]", "value": 2}, {"measurement": "Dissociation, % of participants", "setting": "[2]", "value": "(20) %"}, {"measurement": "Dissociation, number of participants", "setting": "[2]", "value": 11}, {"measurement": "Dissociative disorder, % of participants", "setting": "[2]", "value": "(13) %"}, {"measurement": "Dissociative disorder, number of participants", "setting": "[2]", "value": 7}, {"measurement": "Dizziness, % of participants", "setting": "[2]", "value": "(36) %"}, {"measurement": "Dizziness, number of participants", "setting": "[2]", "value": 20}, {"measurement": "Dysgeusia, % of participants", "setting": "[2]", "value": "(18) %"}, {"measurement": "Dysgeusia, number of participants", "setting": "[2]", "value": 10}, {"measurement": "Feeling abnormal, % of participants", "setting": "[2]", "value": "(7) %"}, {"measurement": "Feeling abnormal, number of participants", "setting": "[2]", "value": 4}, {"measurement": "Headache, % of participants", "setting": "[2]", "value": "(21) %"}, {"measurement": "Headache, number of participants", "setting": "[2]", "value": 12}, {"measurement": "Hypersomnia, % of participants", "setting": "[2]", "value": "(4) %"}, {"measurement": "Hypersomnia, number of participants", "setting": "[2]", "value": 2}, {"measurement": "Hypertension, % of participants", "setting": "[2]", "value": "(5) %"}, {"measurement": "Hypertension, number of participants", "setting": "[2]", "value": 3}, {"measurement": "Hypoesthesia oral, % of participants", "setting": "[2]", "value": "(13) %"}, {"measurement": "Hypoesthesia oral, number of participants", "setting": "[2]", "value": 7}, {"measurement": "Insomnia, % of participants", "setting": "[2]", "value": "(4) %"}, {"measurement": "Insomnia, number of participants", "setting": "[2]", "value": 2}, {"measurement": "Nasal discomfort, % of participants", "setting": "[2]", "value": "(5) %"}, {"measurement": "Nasal discomfort, number of participants", "setting": "[2]", "value": 3}, {"measurement": "Nausea, % of participants", "setting": "[2]", "value": "(18) %"}, {"measurement": "Nausea, number of participants", "setting": "[2]", "value": 10}, {"measurement": "Oropharyngeal pain, % of participants", "setting": "[2]", "value": "(5) %"}, {"measurement": "Oropharyngeal pain, number of participants", "setting": "[2]", "value": 3}, {"measurement": "Polyuria, % of participants", "setting": "[2]", "value": "(4) %"}, {"measurement": "Polyuria, number of participants", "setting": "[2]", "value": 2}, {"measurement": "Sedation, % of participants", "setting": "[2]", "value": "(7) %"}, {"measurement": "Sedation, number of participants", "setting": "[2]", "value": 4}, {"measurement": "Throat irritation, % of participants", "setting": "[2]", "value": "(5) %"}, {"measurement": "Throat irritation, number of participants", "setting": "[2]", "value": 3}, {"measurement": "Total with events, % of participants", "setting": "[2]", "value": "(75) %"}, {"measurement": "Total with events, number of participants", "setting": "[2]", "value": 42}, {"measurement": "Tunnel vision, % of participants", "setting": "[2]", "value": "(4) %"}, {"measurement": "Tunnel vision, number of participants", "setting": "[2]", "value": 2}, {"measurement": "Vertigo, % of participants", "setting": "[2]", "value": "(7) %"}, {"measurement": "Vertigo, number of participants", "setting": "[2]", "value": 4}, {"measurement": "Vision blurred, % of participants", "setting": "[2]", "value": "(4) %"}, {"measurement": "Vision blurred, number of participants", "setting": "[2]", "value": 2}, {"measurement": "Adverse event: dizziness", "setting": "open-label phase", "value": 38.6, "unit": "%"}, {"measurement": "Adverse event: dysgeusia", "setting": "open-label phase", "value": 22.8, "unit": "%"}, {"measurement": "Adverse event: headache", "setting": "open-label phase", "value": 14.0, "unit": "%"}, {"measurement": "Adverse event: nausea", "setting": "open-label phase", "value": 15.8, "unit": "%"}, {"measurement": "Adverse event: sedation", "setting": "open-label phase", "value": 10.5, "unit": "%"}]}
